Experimental data published in ChEMBL document CHEMBL3853318, “Structure-Based Optimization of Potent, Selective, and Orally Bioavailable CDK8 Inhibitors Discovered by High-Throughput Screening” (J Med Chem, 2016).

Key:
CDK8/Cyclin C = CDK8/Cyclin C (Homo sapiens, UniProt P49336); experiment: Inhibition of Alexa647 tracer binding to full length recombinant human His-tagged CDK8/cyclin C expressed in Baculovirus expression system preincubated for 20 mins followed by tracer addition and incubated in dark for 60 mins by FRET-based Lanthascreen assay
[1] = target: Cyclin-dependent kinase 8 (Homo sapiens, UniProt P49336); experiment: Inhibition of CDK8 in human 7dF3 cells preincubated for 2 hrs followed by beta-oestradiol addition measured after 24 hrs by luciferase reporter gene assay; type: cell-based
[2] = Intrinsic clearance in human liver microsomes at 1 uM preincubated for 5 mins followed by NADPH addition measured after 5 to 30 mins by LC-MS/MS analysis; type: ADME; conditions: read-out: CLH
[3] = Intrinsic clearance in rat liver microsomes at 1 uM preincubated for 5 mins followed by NADPH addition measured after 5 to 30 mins by LC-MS/MS analysis; type: ADME; conditions: read-out: CLH
[4] = Intrinsic clearance in mouse liver microsomes at 1 uM preincubated for 5 mins followed by NADPH addition measured after 5 to 30 mins by LC-MS/MS analysis; type: ADME; conditions: read-out: CLH
[5] = target: T1, Tyrosine-protein kinase JAK1 (Homo sapiens, UniProt P23458); experiment: Inhibition of JAK1 (unknown origin) at 1 uM relative to control
[6] = target: T2, Tyrosine-protein kinase JAK2 (Homo sapiens, UniProt O60674); experiment: Inhibition of JAK2 (unknown origin) at 1 uM relative to control
[7] = target: T3, Tyrosine-protein kinase JAK3 (Homo sapiens) (UniProt P52333); experiment: Inhibition of JAK3 (unknown origin) at 1 uM relative to control
T3 sequence (whole entry): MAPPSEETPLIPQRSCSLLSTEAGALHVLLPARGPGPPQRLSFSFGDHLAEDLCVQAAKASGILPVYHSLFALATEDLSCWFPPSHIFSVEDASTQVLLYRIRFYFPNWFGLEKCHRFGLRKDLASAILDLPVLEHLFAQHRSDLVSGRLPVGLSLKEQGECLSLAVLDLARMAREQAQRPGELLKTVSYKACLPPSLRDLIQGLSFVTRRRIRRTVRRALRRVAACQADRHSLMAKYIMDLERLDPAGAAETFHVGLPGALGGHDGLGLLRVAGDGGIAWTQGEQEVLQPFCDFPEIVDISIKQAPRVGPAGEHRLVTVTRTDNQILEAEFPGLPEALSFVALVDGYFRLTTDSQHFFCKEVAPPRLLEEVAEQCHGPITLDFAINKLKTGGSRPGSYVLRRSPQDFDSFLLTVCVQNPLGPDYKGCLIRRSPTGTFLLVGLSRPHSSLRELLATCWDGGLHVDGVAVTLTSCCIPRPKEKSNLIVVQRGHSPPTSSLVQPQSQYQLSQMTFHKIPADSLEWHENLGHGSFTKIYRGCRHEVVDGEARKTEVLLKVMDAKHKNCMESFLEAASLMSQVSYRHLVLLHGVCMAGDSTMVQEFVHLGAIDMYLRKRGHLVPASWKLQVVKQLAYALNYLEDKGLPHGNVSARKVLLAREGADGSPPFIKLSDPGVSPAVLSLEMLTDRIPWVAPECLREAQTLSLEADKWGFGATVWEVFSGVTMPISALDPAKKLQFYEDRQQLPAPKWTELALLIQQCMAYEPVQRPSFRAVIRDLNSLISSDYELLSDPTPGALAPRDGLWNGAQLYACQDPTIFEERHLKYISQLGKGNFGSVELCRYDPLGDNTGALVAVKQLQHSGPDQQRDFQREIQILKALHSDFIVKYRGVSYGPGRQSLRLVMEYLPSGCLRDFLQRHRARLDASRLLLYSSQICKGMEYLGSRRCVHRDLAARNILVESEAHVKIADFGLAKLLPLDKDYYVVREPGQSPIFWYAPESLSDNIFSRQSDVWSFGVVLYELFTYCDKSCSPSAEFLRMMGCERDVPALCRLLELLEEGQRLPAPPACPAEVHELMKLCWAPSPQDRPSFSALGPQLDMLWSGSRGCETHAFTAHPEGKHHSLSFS

[8] = target: T4, Rho-associated protein kinase 2 (Homo sapiens, UniProt O75116); experiment: Inhibition of ROCK-2 (unknown origin) at 1 uM relative to control
Target sequence in this assay (O75116 whole entry, looked up): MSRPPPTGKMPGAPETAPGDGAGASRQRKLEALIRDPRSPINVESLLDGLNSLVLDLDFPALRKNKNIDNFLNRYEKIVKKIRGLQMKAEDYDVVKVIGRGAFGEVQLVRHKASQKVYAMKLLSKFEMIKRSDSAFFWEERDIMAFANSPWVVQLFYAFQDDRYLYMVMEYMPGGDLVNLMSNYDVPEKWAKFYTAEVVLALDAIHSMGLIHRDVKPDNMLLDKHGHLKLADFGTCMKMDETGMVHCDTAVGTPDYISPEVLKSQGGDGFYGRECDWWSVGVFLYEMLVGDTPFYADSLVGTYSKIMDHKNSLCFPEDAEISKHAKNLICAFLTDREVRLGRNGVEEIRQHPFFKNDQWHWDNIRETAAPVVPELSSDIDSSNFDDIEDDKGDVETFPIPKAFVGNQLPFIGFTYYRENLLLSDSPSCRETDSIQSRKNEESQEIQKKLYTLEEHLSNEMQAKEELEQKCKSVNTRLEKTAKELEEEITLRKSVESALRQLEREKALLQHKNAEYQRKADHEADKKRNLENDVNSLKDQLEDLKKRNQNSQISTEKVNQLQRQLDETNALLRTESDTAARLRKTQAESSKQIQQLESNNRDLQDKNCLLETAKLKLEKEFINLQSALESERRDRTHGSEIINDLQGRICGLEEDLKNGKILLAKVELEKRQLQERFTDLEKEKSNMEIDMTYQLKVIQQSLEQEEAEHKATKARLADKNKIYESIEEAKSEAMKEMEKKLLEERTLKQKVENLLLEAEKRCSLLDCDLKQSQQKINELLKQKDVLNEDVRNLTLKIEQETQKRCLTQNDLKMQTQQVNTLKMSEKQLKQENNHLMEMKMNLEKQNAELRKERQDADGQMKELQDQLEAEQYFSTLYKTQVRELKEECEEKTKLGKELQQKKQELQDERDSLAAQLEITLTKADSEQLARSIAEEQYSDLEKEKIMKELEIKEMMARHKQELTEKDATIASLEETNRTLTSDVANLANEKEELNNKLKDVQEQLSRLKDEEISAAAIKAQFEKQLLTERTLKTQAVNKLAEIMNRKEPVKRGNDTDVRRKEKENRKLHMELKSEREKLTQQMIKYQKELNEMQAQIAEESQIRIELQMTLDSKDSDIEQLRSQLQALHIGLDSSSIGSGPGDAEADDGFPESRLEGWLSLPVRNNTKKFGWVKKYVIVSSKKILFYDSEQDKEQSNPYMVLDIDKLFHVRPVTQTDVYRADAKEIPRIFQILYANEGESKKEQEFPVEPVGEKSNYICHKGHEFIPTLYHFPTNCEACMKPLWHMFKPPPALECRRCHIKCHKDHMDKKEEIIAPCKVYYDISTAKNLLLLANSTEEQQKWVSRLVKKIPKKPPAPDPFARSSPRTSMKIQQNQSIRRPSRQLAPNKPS

[9] = target: T5, Non-receptor tyrosine-protein kinase TYK2 (Homo sapiens, UniProt P29597); experiment: Inhibition of TYK2 (unknown origin) at 1 uM relative to control
7dF3 = experiment: Ratio of IC50 for CDK8 in human 7dF3 cells to IC50 for Alexa647 tracer binding to full length recombinant human His-tagged CDK8/cyclin C; type: cell-based
[10] = Apparent permeability from apical to basolateral side in human Caco2 cells at 1 uM after 2 hrs by Transwell assay; type: ADME, cell-based; conditions: Caco-2
[11] = Efflux ratio of permeability in human Caco2 cells at 1 uM after 2 hrs by Transwell assay; type: ADME, cell-based; conditions: Caco-2
[12] = target: T1, Tyrosine-protein kinase JAK1; experiment: Inhibition of JAK1 (unknown origin)
[13] = target: T2, Tyrosine-protein kinase JAK2; experiment: Inhibition of JAK2 (unknown origin)
[14] = target: T6, Tyrosine-protein kinase JAK3 (Homo sapiens, UniProt P52333); experiment: Inhibition of JAK3 (unknown origin)
T6 sequence (P52333 whole entry): T3 sequence (whole entry)

[15] = target: T4, Rho-associated protein kinase 2; experiment: Inhibition of ROCK-2 (unknown origin)
Target sequence in this assay (O75116 whole entry): as the sequence (O75116 whole entry, looked up) above

[16] = target: T5, Non-receptor tyrosine-protein kinase TYK2; experiment: Inhibition of TYK2 (unknown origin)

T5 sequence (P29597 whole entry): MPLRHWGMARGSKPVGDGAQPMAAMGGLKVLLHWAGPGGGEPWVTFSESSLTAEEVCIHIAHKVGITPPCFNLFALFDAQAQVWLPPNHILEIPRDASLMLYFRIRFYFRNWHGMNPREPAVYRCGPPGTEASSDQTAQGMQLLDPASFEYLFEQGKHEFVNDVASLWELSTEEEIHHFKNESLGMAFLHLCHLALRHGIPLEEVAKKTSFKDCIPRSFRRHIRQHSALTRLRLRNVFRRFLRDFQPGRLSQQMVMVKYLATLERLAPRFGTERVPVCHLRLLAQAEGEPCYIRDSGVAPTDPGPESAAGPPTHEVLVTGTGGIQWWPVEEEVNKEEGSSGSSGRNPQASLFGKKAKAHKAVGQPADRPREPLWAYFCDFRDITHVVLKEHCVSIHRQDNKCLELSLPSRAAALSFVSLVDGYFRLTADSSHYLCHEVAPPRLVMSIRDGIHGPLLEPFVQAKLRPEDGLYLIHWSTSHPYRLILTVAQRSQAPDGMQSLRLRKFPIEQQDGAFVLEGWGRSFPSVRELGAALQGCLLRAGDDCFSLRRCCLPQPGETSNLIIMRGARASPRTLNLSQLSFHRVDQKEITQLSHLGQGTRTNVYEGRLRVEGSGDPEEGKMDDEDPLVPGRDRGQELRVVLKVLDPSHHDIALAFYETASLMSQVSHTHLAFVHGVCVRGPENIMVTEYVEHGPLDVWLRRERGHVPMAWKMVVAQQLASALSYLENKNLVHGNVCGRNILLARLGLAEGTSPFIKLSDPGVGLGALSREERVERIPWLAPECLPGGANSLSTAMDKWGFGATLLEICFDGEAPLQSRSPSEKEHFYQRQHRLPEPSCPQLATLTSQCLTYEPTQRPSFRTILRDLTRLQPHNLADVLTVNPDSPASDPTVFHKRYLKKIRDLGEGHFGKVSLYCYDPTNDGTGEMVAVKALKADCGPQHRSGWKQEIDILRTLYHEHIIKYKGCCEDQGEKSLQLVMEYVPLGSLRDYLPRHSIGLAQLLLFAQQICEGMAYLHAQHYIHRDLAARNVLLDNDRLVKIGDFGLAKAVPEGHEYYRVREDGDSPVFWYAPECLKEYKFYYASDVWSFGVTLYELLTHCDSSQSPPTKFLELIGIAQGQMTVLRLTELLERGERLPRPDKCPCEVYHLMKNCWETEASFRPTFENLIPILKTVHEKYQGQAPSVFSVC
T1 sequence (P23458 whole entry): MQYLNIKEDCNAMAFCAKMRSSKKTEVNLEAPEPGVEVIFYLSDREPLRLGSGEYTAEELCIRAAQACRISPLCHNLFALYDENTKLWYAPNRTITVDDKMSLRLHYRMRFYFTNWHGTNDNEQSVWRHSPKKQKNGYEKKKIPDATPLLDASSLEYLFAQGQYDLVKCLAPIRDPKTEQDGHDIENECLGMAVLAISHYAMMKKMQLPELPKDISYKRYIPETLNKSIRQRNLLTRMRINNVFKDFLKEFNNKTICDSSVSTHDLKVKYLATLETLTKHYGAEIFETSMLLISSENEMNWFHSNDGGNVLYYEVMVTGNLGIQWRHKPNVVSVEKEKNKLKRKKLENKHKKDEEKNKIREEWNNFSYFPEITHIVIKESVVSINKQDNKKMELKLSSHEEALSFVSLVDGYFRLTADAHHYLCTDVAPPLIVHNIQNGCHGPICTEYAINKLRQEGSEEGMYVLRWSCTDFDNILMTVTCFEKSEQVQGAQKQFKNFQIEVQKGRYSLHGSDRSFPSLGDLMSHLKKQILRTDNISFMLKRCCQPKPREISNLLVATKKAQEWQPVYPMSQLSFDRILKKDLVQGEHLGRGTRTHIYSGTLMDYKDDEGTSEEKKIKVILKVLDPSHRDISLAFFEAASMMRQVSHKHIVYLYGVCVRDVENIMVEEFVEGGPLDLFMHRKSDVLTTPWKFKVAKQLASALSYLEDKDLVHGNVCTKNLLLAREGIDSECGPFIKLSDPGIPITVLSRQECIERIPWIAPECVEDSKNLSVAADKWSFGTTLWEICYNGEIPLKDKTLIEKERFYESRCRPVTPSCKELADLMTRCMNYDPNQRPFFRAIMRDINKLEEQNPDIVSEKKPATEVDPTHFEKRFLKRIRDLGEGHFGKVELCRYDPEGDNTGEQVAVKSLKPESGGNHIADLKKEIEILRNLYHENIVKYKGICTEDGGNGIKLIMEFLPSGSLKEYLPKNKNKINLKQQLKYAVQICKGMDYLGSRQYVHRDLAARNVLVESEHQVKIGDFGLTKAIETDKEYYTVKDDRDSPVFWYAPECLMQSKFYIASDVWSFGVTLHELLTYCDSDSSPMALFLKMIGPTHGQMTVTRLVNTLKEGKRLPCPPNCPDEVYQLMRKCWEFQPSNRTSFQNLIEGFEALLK
CDK8/Cyclin C, sequence (P49336 whole entry): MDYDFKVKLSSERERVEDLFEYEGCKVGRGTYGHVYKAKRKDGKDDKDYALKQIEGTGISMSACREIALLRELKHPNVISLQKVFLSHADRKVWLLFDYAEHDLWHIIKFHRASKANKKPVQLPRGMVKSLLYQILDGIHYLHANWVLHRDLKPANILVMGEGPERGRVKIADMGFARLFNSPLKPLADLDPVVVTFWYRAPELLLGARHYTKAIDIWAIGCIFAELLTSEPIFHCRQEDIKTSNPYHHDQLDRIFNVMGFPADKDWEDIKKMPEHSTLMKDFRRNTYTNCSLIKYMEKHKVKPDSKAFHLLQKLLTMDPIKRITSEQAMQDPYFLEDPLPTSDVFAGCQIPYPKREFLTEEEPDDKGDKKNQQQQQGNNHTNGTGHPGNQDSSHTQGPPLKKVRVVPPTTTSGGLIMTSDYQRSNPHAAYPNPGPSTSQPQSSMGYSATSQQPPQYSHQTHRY
CDK8/Cyclin C, sequence (P24863 whole entry, further chain): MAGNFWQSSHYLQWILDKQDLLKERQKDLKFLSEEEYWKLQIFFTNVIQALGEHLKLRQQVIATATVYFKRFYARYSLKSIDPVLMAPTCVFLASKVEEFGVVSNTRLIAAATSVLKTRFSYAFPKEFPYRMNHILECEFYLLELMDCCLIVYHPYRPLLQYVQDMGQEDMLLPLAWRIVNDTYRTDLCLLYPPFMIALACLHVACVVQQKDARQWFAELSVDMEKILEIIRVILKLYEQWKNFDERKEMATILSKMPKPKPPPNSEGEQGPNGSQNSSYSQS
Cyclin-dependent kinase 8, sequence (P49336 whole entry): as the sequence (P49336 whole entry) above

| SMILES | IC50 (CDK8/Cyclin C) [nM] | IC50 [1] [nM] | microsomal CLint at 1 µM [2] [µL/min/mg] | microsomal CLint at 1 µM [3] [µL/min/mg] | microsomal CLint at 1 µM [4] [µL/min/mg] | inhibition [5] [%] | inhibition [6] [%] | inhibition [7] [%] | inhibition [8] [%] | inhibition [9] [%] | Papp A→B at 2 h, 1 µM [10] [×10⁻⁶ cm/s] | efflux ratio at 2 h, 1 µM [11] | IC50 [12] [nM] | IC50 [13] [nM] | IC50 [14] [nM] | IC50 [15] [nM] | IC50 [16] [nM] | Ratio IC50 (7dF3) |
| --- | --- | --- | --- | --- | --- | --- | --- | --- | --- | --- | --- | --- | --- | --- | --- | --- | --- | --- |
| Cc1ncc2sc(C(=O)N3CCC[C@@H]3c3ccc(Cl)cc3)nn12 | 110 | 1600 | 60 | 449 | 514 | – | – | – | – | – | – | – | – | – | – | – | – | – |
| Cc1n[nH]c2ccc(C(=O)N3CCC[C@H]3c3ccc(Cl)cc3)nc12 | 1.3 | 2.8 | 100 | 69 | 29 | – | – | – | – | – | – | – | – | – | – | – | – | – |
| Nc1n[nH]c2ccc(C(=O)N3CCC[C@H]3c3ccc(F)cc3)cc12 | 32 | 120 | < 10 | < 10 | < 10 | 72 | 59 | 58 | 27 | 62 | – | – | – | – | – | – | – | – |
| Nc1n[nH]c2ccc(C(=O)N3CC[C@H]3c3ccc(F)cc3)cc12 | 49 | 435 | 10 | < 10 | 10 | 63 | 24 | 21 | 12 | 45 | – | – | – | – | – | – | – | – |
| O=C(c1ccc2[nH]ncc2c1)N1CCC[C@H]1c1ccc(Cl)cc1 | 32 | 100 | 354 | 94 | 86 | – | – | – | – | – | – | – | – | – | – | – | – | – |
| Cc1ncc2ccc(C(=O)N3CCC[C@H]3c3ccc(Cl)cc3)cn12 | 9 | 90 | 390 | 108 | 63 | – | – | – | – | – | – | – | – | – | – | – | – | – |
| CCOc1ccccc1CNC(=O)c1nn2c(C)ncc2s1 | 129 | 1650 | > 1000 | 435 | 119 | – | – | – | – | – | – | – | – | – | – | – | – | 3 |
| Cc1ncc2sc(C(=O)N3CCCC3c3ccccc3)nn12 (centres undefined) | 77 | 415 | 56 | 446 | 145 | – | – | – | – | – | – | – | – | – | – | – | – | 3 |
| Cc1n[nH]c2ccc(C(=O)N3CCC[C@H]3c3ccc(Cl)cc3)cc12 | 1.4 | 0.6 | 525 | 79 | 244 | – | – | – | – | – | – | – | – | – | – | – | – | – |
| Cc1n[nH]c2cnc(C(=O)N3CCC[C@H]3c3ccc(Cl)cc3)cc12 | 11 | 125 | 206 | 70 | 61 | – | – | – | – | – | – | – | – | – | – | – | – | – |
| Cc1ncc2sc(C(=O)N3CCCC3c3ccc(Cl)cc3)nn12 (centres undefined) | 17 | 100 | 52 | 719 | 388 | – | – | – | – | – | – | – | – | – | – | – | – | – |

Further compounds by falling IC50 (CDK8/Cyclin C), results first:

| IC50 (CDK8/Cyclin C) [nM] | IC50 [1] [nM] | microsomal CLint at 1 µM [2] [µL/min/mg] | microsomal CLint at 1 µM [3] [µL/min/mg] | microsomal CLint at 1 µM [4] [µL/min/mg] | inhibition [5] [%] | inhibition [6] [%] | inhibition [7] [%] | inhibition [8] [%] | inhibition [9] [%] | Papp A→B at 2 h, 1 µM [10] [×10⁻⁶ cm/s] | efflux ratio at 2 h, 1 µM [11] | IC50 [12] [nM] | IC50 [13] [nM] | IC50 [14] [nM] | IC50 [15] [nM] | IC50 [16] [nM] | SMILES | Ratio IC50 (7dF3) |
| --- | --- | --- | --- | --- | --- | --- | --- | --- | --- | --- | --- | --- | --- | --- | --- | --- | --- | --- |
| 3990 | > 10000 | < 10 | 19 | 18 | – | – | – | – | – | – | – | – | – | – | – | – | Cc1nnc2ccc(C(=O)N3CCC[C@H]3c3ccc(Cl)cc3)cn12 | – |
| 781 | 2450 | 61 | 38 | > 1000 | – | – | – | – | – | – | – | – | – | – | – | – | CCOc1ccccc1C(C)NC(=O)c1nn2c(C)ncc2s1 (centres undefined) | 3 |
| 60 | 290 | 38 | 280 | 129 | – | – | – | – | – | – | – | – | – | – | – | – | Cc1ncc2sc(C(=O)N3CCCC3c3ccc(F)cc3)nn12 (centres undefined) | 3 |
| 45 | 800 | < 10 | 15 | 28 | 21 | -2 | – | 22 | 17 | – | – | – | – | – | – | – | Nc1n[nH]c2ccc(C(=O)N3CCCC[C@H]3c3ccc(F)cc3)cc12 | – |
| 24 | 150 | < 10 | 26 | 19 | 24 | – | 15 | 20 | 23 | – | – | – | – | – | – | – | Nc1n[nH]c2ccc(C(=O)N3CC[C@@H](c4ccc(Cl)cc4)C3)cc12 | – |
| 15 | 230 | 135 | 40 | 63 | – | – | – | – | – | – | – | – | – | – | – | – | Cc1n[nH]c2ccc(C(=O)N3CCN(C)CC3c3ccc(Cl)cc3)cc12 (centres undefined) | – |
| 8.5 | 115 | 135 | 44 | 29 | – | – | – | – | – | – | – | – | – | – | – | – | Cc1n[nH]c2ccc(C(=O)N3CCOCC3c3ccc(Cl)cc3)cc12 (centres undefined) | – |
| 5.4 | 12 | 18 | 28 | 31 | 34 | 34 | 37 | 17 | 32 | – | – | – | – | – | – | – | CNc1n[nH]c2ccc(C(=O)N3CCC[C@H]3c3ccc(Cl)cc3)cc12 | – |
| 4.9 | 28 | 23 | 10 | 10 | 86 | 84 | 79 | 42 | 70 | 33.7 | 2.2 | 90 | 286 | 219 | 1330 | 279 | Nc1n[nH]c2ccc(C(=O)N3CCC[C@H]3c3ccc(Cl)cc3)cc12 | – |
| 3.8 | 70 | 49 | 655 | 447 | – | – | – | – | – | – | – | – | – | – | – | – | Cc1ncc2sc(C(=O)N3CCC[C@H]3c3ccc(Cl)cc3)nn12 | – |
| 3.1 | 19 | < 10 | < 10 | 14 | 88 | 88 | 76 | 65 | 76 | – | – | – | – | – | – | – | Nc1n[nH]c2ccc(C(=O)N3CCC[C@H]3c3ccc(Br)cc3)cc12 | – |
| 1.7 | 2 | 908 | 62 | 113 | – | – | – | – | – | – | – | – | – | – | – | – | Cc1n[nH]c2ccc(C(=O)N3CC[C@H]3c3ccc(Cl)cc3)cc12 | – |
